The record followed here is patent publication US10925857B2, “Rational drug design targeting resistant gram-negative bacterial infections to polymyxin-class antibiotics” (The Trustees of Columbia University in the City of New York, priority 2015, dated 2021).

The target of one test is T1, E. coli ArnT (Escherichia coli, UniProt P76473).
T1 construct: it carries the endogenous E. coli ArnT gene; endogenous in cells; host or cells: E. coli BL21(DE3)
Put plainly: Polymyxin B growth assay for compound screening, BL21 strain. It is filed as cell-based. As to conditions: E. coli BL21 strain carrying E. coli ArnT; compound 0.5 mM; 3 μg/ml Polymyxin B; OD 600 nm. From the text: (§1) FIGS. 8A-J show graphic results of the polymyxin growth assay for the five Class I compounds obtained in target-based virtual screening. In this and all subsequent figures showing results of compound testing in the polymyxin growth assay, four curves are shown, (i) growth of test strain (BL21 for targeting E. coli ArnT or Gi24 for targeting S. typhimurium ArnT) in the absence of PMXB (−PMXB, represented by an open circle), (ii) growth of test strain in the presence of PMXB (+PMXB, represented by an open square), (iii) growth of test strain in the absence of PMXB and in the presence of test compound (−PMXB+Cmpd, represented by open diamond), and (iv) growth of test strain in the presence of PMXB and test compound (+PMXB+Cmpd, represented by an […]). Each point in the curves represents the mean of six measurements of absorbance (OD) at 600 nm (triplicate samples from two independent experiments). Standard deviation is not shown, but typically ranged from 0.001 to 0.1. Growth of E. coli BL21 strain (carrying the E. coli ArnT) was measured in the presence of Class I compounds 20, 14, 15, 19, or U2 (FIGS. 8A, 8C, SE, 8G and 8I, respectively). Growth of E. coli Gi24 strain (carrying the S. typhimurium ArnT) was measured in the presence of Class I compounds 20, 14, 15, 19, or U2 (FIGS. 8B, 8D, 8F, 8H and 8J, respectively). […]

The target in test [1] is T2, Salmonella typhimurium ArnT (Salmonella typhimurium, UniProt O52327).
T2 construct: expressed in transfected cells; host or cells: E. coli BL21(DE3) ΔArnT transformed with plasmid pGi24 (strain Gi24)
Put plainly: Polymyxin B growth assay for compound screening, Gi24 strain. It is filed as cell-based. As to conditions: E. coli Gi24 strain carrying S. typhimurium ArnT; compound 0.5 mM; 3 μg/ml Polymyxin B; OD 600 nm.
Source text: as §1

Test [2] concerns E. coli BL21 ΔArnT strain. Put plainly: Control polymyxin growth assay, BL21 ΔArnT strain. It is filed as cell-based, Escherichia coli. As to conditions: endogenous ArnT gene deleted. From the text:
(§2) E. coli BL21 strain is used to test efficacy of tested compounds towards the E. coli ArnT protein. […] Gi24 is E. coli BL21 ΔArnT that has been transformed with the plasmid pGi24 that expresses the wt Salmonella typhimurium ArnT. […] The Gi24 strain is used to test efficacy of tested compounds towards the Salmonella typhimurium ArnT protein.
(§3) Three strains were used for the implementation of the polymyxin B growth assay for compound screening in a 96-well plate format: (1) BL21 (DE3) E. coli strain (referred to as BL21). […] E. coli BL21 strain is used to test efficacy of tested compounds towards the E. coli ArnT protein. (2) E. coli BL21(DE3) ΔArnT the endogenous E. coli ArnT gene has been deleted, thus rendering the E. coli BL21 ΔArnT strain sensitive to polymyxin B (referred to as ΔArnT). (3) E. coli BL21(DE3) ΔArnT that has been transformed with the plasmid pGi24 that expresses the wt Salmonella typhimurium ArnT (referred to as Gi24). […]
(§4) Overnight cultures of the three strains were used to inoculate LB media containing 100 μg/ml Ampicillin alone (PMXB−) or 100 μg/ml and 3 μg/ml Polymyxin B (PMXB+) at 1:2000 dilution, as appropriate. […] The 96-well plate was transferred to an Epoch 2 microplate reader (Biotek) and shaken continuously at 37° C. Growth was continuously quantitated spectrophotometrically at 600 nm. […]

The next test has as its system E. coli BL21 strain. Description: Control polymyxin growth assay, BL21 strain. It is filed as cell-based, Escherichia coli. The following applies: E. coli BL21, endogenous E. coli ArnT gene.
Source text: as §2, §3, §4

Test [3] relates to Gi24 strain (E. coli BL21 ΔArnT expressing wt Salmonella typhimurium ArnT). Description: Control polymyxin growth assay, Gi24 strain. It is filed as cell-based, Escherichia coli. The following applies: Gi24: BL21 ΔArnT with plasmid pGi24 expressing wt S. typhimurium ArnT.
Source text: as §2, §3, §4

T1 sequence (P76473 whole entry): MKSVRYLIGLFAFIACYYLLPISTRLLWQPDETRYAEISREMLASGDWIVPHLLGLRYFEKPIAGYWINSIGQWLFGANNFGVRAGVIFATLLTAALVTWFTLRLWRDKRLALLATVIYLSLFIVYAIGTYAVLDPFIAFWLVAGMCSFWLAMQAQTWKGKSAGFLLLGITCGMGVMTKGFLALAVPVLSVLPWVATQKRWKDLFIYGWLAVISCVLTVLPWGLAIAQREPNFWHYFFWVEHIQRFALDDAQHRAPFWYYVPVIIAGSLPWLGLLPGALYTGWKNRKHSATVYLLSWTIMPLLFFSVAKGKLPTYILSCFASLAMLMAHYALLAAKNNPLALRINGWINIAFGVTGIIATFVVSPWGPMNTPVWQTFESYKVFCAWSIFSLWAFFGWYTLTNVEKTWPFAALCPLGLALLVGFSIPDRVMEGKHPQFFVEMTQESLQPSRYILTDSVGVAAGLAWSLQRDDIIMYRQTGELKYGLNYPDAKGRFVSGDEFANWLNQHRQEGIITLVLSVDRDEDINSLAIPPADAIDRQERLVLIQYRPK

Consider `Cc1[nH]nc(O)c1C(c1ccc(Cl)cc1)c1c(O)n[nH]c1C` [Compound 20, 4-[(4-chlorophenyl)-(3-methyl-5-oxo-1,2-dihydropyrazol-4-yl)methyl]-5-methyl-1,2-dihydropyrazol-3-one], for which the “ArnT inhibiting activity (retardation of growth of polymyxin resistant strain in the presence of PMXB)” value (on E. coli ArnT; in test [1]) was “especially strong ArnT inhibiting activity” throughout.
As to polymyxin B, the “growth of strain in the presence of PMXB” value in test [2] is listed as “absence of growth”; with E. coli BL21 strain, “inherently resistant”; in test [3], “growth of Gi24 strain in the presence of PMXB”.
